Row | melting point [°C] | SMILES
1 | 188 to 198 | CCc1ccc(CC(=O)Nc2ccc(S(N)(=O)=O)cc2)cc1Oc1cc(C#N)cc(C(F)F)c1 [Compound I-91, 2-[3-(3-Cyano-5-difluoromethyl-phenoxy)-4-ethyl-phenyl]-N-(4-sulfamoyl-phenyl)-acetamide]
2 | 213.9 to 214.2 | COc1ccc(CC(=O)Nc2ccc(S(N)(=O)=O)cc2)cc1Oc1cc(C#N)cc(C(F)F)c1 [Compound I-92, 2-[3-(3-Cyano-5-difluoromethyl-phenoxy)-4-methoxy-phenyl]-N-(4-sulfamoyl-phenyl)-acetamide]
3 | 175 to 177.2 | COc1ccc(CC(=O)Nc2ccc(S(N)(=O)=O)cc2C)cc1Oc1cc(C#N)cc(C(F)F)c1 [Compound I-93, 2-[3-(3-Cyano-5-difluoromethyl-phenoxy)-4-methoxy-phenyl]-N-(2-methyl-4-sulfamoyl-phenyl)-acetamide]
4 | 185 to 187.9 | COc1ccc(CC(=O)Nc2ccc(S(N)(=O)=O)cc2Cl)cc1Oc1cc(C#N)cc(C(F)F)c1 [Compound I-94, N-(2-Chloro-4-sulfamoyl-phenyl)-2-[3-(3-cyano-5-difluoromethyl-phenoxy)-4-methoxy-phenyl]-acetamide]
5 | 207 to 209.8 | CC(F)(F)c1cc(C#N)cc(Oc2c(Cl)ccc(CC(=O)Nc3ccc(S(N)(=O)=O)cc3)c2F)c1 [Compound I-95, 2-{4-Chloro-3-[3-cyano-5-(1,1-difluoro-ethyl)-phenoxy]-2-fluoro-phenyl}-N-(4-sulfamoyl-phenyl)-acetamide]
6 | 198.5 to 201 | Cc1cc(S(N)(=O)=O)ccc1NC(=O)Cc1ccc(Cl)c(Oc2cc(C#N)cc(C(C)(F)F)c2)c1F [Compound I-96, 2-{4-Chloro-3-[3-cyano-5-(1,1-difluoro-ethyl)-phenoxy]-2-fluoro-phenyl}-N-(2-methyl-4-sulfamoyl-phenyl)-acetamide]
7 | 192 to 197.6 | CC(F)(F)c1cc(C#N)cc(Oc2c(Cl)ccc(CC(=O)Nc3ccc(S(N)(=O)=O)cc3Cl)c2F)c1 [Compound I-97, 2-{4-Chloro-3-[3-cyano-5-(1,1-difluoro-ethyl)-phenoxy]-2-fluoro-phenyl}-N-(2-chloro-4-sulfamoyl-phenyl)-acetamide]
8 | 212 to 216.9 | CCC(=O)N(C)S(=O)(=O)c1ccc(NC(=O)Cc2ccc(Cl)c(Oc3cc(Cl)cc(C#N)c3)c2F)c(C)c1 [Compound I-99, 2-[4-Chloro-3-(3-chloro-5-cyano-phenoxy)-2-fluoro-phenyl]-N-[2-methyl-4-(methyl-propionyl-sulfamoyl)-phenyl]-acetamide]
9 | 234.4 to 234.9 | N#Cc1cc(Cl)cc(Oc2c(Cl)ccc(CC(=O)Nc3ccc(S(N)(=O)=O)cc3Cl)c2F)c1 [Compound I-100, 2-[4-Chloro-3-(3-chloro-5-cyano-phenoxy)-2-fluoro-phenyl]-N-(2-chloro-4-sulfamoyl-phenyl)-acetamide]
10 | 180.5 to 181.3 | COc1cc(CC(=O)Nc2ccc(S(N)(=O)=O)cc2)cc(Oc2cc(C#N)ccc2Cl)c1 [Compound I-102, 2-[3-(2-Chloro-5-cyano-phenoxy)-5-methoxy-phenyl]-N-(4-sulfamoyl-phenyl)-acetamide]
11 | 179.8 to 184 | COc1cc(CC(=O)Nc2ccc(S(N)(=O)=O)cc2C)cc(Oc2cc(C#N)ccc2Cl)c1 [Compound I-103, 2-[3-(2-Chloro-5-cyano-phenoxy)-5-methoxy-phenyl]-N-(2-methyl-4-sulfamoyl-phenyl)-acetamide]
12 | 231.6 to 233.1 | CCc1cc(CC(=O)Nc2ccc(S(N)(=O)=O)cc2C)cc(Oc2cc(C#N)ccc2Cl)c1 [Compound I-106, 2-[3-(2-Chloro-5-cyano-phenoxy)-5-ethyl-phenyl]-N-(2-methyl-4-sulfamoyl-phenyl)-acetamide]
13 | 204 to 207 | CCc1cc(CC(=O)Nc2ccc(S(N)(=O)=O)cc2Cl)cc(Oc2cc(C#N)ccc2Cl)c1 [Compound I-107, 2-[3-(2-Chloro-5-cyano-phenoxy)-5-ethyl-phenyl]-N-(2-chloro-4-sulfamoyl-phenyl)-acetamide]
14 | 204.4 to 207.3 | CNS(=O)(=O)c1ccc(NC(=O)Cc2ccc(Cl)c(Oc3cc(Cl)cc(C#N)c3)c2F)c(C)c1 [Compound I-108, 2-[4-Chloro-3-(3-chloro-5-cyano-phenoxy)-2-fluoro-phenyl]-N-(2-methyl-4-methylsulfamoyl-phenyl)-acetamide]
15 | 134 to 137.1 | CN(C(=O)Cc1ccc(Cl)c(Oc2cc(Cl)cc(C#N)c2)c1F)c1ccccc1Cl [Compound I-111, 2-[4-Chloro-3-(3-chloro-5-cyano-phenoxy)-2-fluoro-phenyl]-N-(2-chloro-phenyl)-N-methyl-acetamide]
16 | 179.9 to 182 | Cc1ccc(CC(=O)Nc2ccc(S(C)(=O)=O)cc2Cl)c(F)c1Oc1cc(C#N)cc(C(F)F)c1 [Compound I-112, N-(2-Chloro-4-methanesulfonyl-phenyl)-2-[3-(3-cyano-5-difluoromethyl-phenoxy)-2-fluoro-4-methyl-phenyl]-acetamide]

Row | melting point [°C] | SMILES
17 | 144 to 147 | N#Cc1cc(Oc2c(F)c(CC(=O)Nc3ccc(S(N)(=O)=O)cc3)cc(Br)c2Br)cc(C(F)F)c1 [Compound I-114, 2-[4,5-Dibromo-3-(3-cyano-5-difluoromethyl-phenoxy)-2-fluoro-phenyl]-N-(4-sulfamoyl-phenyl)-acetamide]
18 | 151.9 to 155.3 | Cc1cc(S(=O)(=O)N2CCSCC2)ccc1NC(=O)Cc1ccc(C)c(Oc2cc(Cl)cc(C#N)c2)c1 [Compound I-117, 2-[3-(3-Chloro-5-cyano-phenoxy)-4-methyl-phenyl]-N-[2-methyl-4-(thiomorpholine-4-sulfonyl)-phenyl]-acetamide]
19 | 177 to 181 | Cc1cc(S(=O)(=O)NCCN2CCOCC2)ccc1NC(=O)Cc1ccc(C)c(Oc2cc(Cl)cc(C#N)c2)c1 [Compound I-118, 2-[3-(3-Chloro-5-cyano-phenoxy)-4-methyl-phenyl]-N-[2-methyl-4-(2-morpholin-4-yl-ethylsulfamoyl)-phenyl]-acetamide]
20 | 212 to 216.1 | Cc1cc(S(N)(=O)=O)ccc1NC(=O)Cc1ccc(Cl)c(Oc2cc(C#N)cc(C(F)(F)F)c2)c1F [Compound I-120, 2-[4-Chloro-3-(3-cyano-5-trifluoromethyl-phenoxy)-2-fluoro-phenyl]-N-(2-methyl-4-sulfamoyl-phenyl)-acetamide]
21 | 195.1 to 197.7 | Cc1cc(S(=O)(=O)NC2CCC(O)CC2)ccc1NC(=O)Cc1ccc(C)c(Oc2cc(Cl)cc(C#N)c2)c1 (centres unmarked) [Compound I-121, 2-[3-(3-Chloro-5-cyano-phenoxy)-4-methyl-phenyl]-N-[4-(4-hydroxy-cyclohexylsulfamoyl)-2-methyl-phenyl]-acetamide]
22 | 192.8 to 194.1 | Cc1cc(S(N)(=O)=O)ccc1NC(=O)Cc1ccc(C)c(Oc2cc(Cl)cc(C#N)c2)c1 [Compound I-122, 2-[3-(3-Chloro-5-cyano-phenoxy)-4-methyl-phenyl]-N-(2-methyl-4-sulfamoyl-phenyl)-acetamide]
23 | 194 to 194.9 | Cc1ccc(CC(=O)Nc2ccc(S(N)(=O)=O)cc2Cl)cc1Oc1cc(Cl)cc(C#N)c1 [Compound I-123, 2-[3-(3-Chloro-5-cyano-phenoxy)-4-methyl-phenyl]-N-(2-chloro-4-sulfamoyl-phenyl)-acetamide]
24 | 230.1 to 230.7 | Cc1cc(C#N)cc(Oc2c(Cl)ccc(CC(=O)Nc3ccc(S(N)(=O)=O)cc3C)c2F)n1 [Compound I-124, 2-[4-Chloro-3-(4-cyano-6-methyl-pyridin-2-yloxy)-2-fluoro-phenyl]-N-(2-methyl-4-sulfamoyl-phenyl)-acetamide]
25 | 74.3 to 76.5 | Cc1cc(S(=O)(=O)CCC(=O)O)ccc1NC(=O)Cc1ccc(C)c(Oc2cc(Cl)cc(C#N)c2)c1 [Compound I-125, 3-(4-{2-[3-(3-Chloro-5-cyano-phenoxy)-4-methyl-phenyl]-acetylamino}-3-methyl-benzenesulfonyl)-propionic acid]
26 | 171.7 to 172.6 | Cc1cc(S(=O)(=O)NC2CCOCC2)ccc1NC(=O)Cc1ccc(C)c(Oc2cc(Cl)cc(C#N)c2)c1 [Compound I-128, 2-[3-(3-Chloro-5-cyano-phenoxy)-4-methyl-phenyl]-N-[2-methyl-4-(tetrahydro-pyran-4-ylsulfamoyl)-phenyl]-acetamide]
27 | 172.2 to 173.4 | Cc1cc(S(=O)(=O)NCC(C)O)ccc1NC(=O)Cc1ccc(C)c(Oc2cc(Cl)cc(C#N)c2)c1 (centres unmarked) [Compound I-129, 2-[3-(3-Chloro-5-cyano-phenoxy)-4-methyl-phenyl]-N-[4-(2-hydroxy-propylsulfamoyl)-2-methyl-phenyl]-acetamide]
28 | 155.6 to 156.6 | CSCCNS(=O)(=O)c1ccc(NC(=O)Cc2ccc(C)c(Oc3cc(Cl)cc(C#N)c3)c2)c(C)c1 [Compound I-130, 2-[3-(3-Chloro-5-cyano-phenoxy)-4-methyl-phenyl]-N-[2-methyl-4-(2-methylsulfanyl-ethylsulfamoyl)-phenyl]-acetamide]
29 | 159.9 to 162.8 | CSCCCNS(=O)(=O)c1ccc(NC(=O)Cc2ccc(C)c(Oc3cc(Cl)cc(C#N)c3)c2)c(C)c1 [Compound I-131, 2-[3-(3-Chloro-5-cyano-phenoxy)-4-methyl-phenyl]-N-[2-methyl-4-(3-methylsulfanyl-propylsulfamoyl)-phenyl]-acetamide]
30 | 184.1 to 185.5 | COc1cc(CC(=O)Nc2ccc(S(N)(=O)=O)cc2)cc(Oc2cc(Cl)cc(C#N)c2)c1 [Compound I-132, 2-[3-(3-Chloro-5-cyano-phenoxy)-5-methoxy-phenyl]-N-(4-sulfamoyl-phenyl)-acetamide]
31 | 169.9 to 171.1 | COc1cc(CC(=O)Nc2ccc(S(N)(=O)=O)cc2C)cc(Oc2cc(Cl)cc(C#N)c2)c1 [Compound I-133, 2-[3-(3-Chloro-5-cyano-phenoxy)-5-methoxy-phenyl]-N-(2-methyl-4-sulfamoyl-phenyl)-acetamide]
32 | 159 to 161.1 | COc1cc(CC(=O)Nc2ccc(S(N)(=O)=O)cc2Cl)cc(Oc2cc(Cl)cc(C#N)c2)c1 [Compound I-136, 2-[3-(3-Chloro-5-cyano-phenoxy)-5-methoxy-phenyl]-N-(2-chloro-4-sulfamoyl-phenyl)-acetamide]

Reference: US7166738B2, “Non-nucleoside reverse transcriptase inhibitors” (Roche Palo Alto LLC, priority 2004, dated 2007)
